Target: T1, RAC-PK PH domain (Homo sapiens, UniProt P31749)
T1 construct: pGEX-PH131 contains an in-frame fusion of amino acids 1-131 of human RAC-PKα with GST; GST (N, cleaved yes); made in house; host or cells: E. coli (JM109)
Assay: Quenching of the intrinsic Trp fluorescence of the PH domain by phospholipids and inositol phosphates
Type: binding
Conditions: calculated from reduction of 345nm fluorescence (excited at 290nm); 10mM Hepes/NaOH, pH 7.0, 10mM MgCl2, 25°C; read-out: Dissociation Constant
Description: Purified PH domain obtained according to Example 1 is incubated at a concentration of 1.4µM in 10mM Hepes/NaOH, pH 7.0, 10mM MgCl2, at 25°C.
Under the same conditions as Example 3, the RAC-PK PH domain is incubated in the presence of varying concentrations of phospholipids and inositol phosphates and fluorescence is measured. […]

T1 sequence (P31749 1-131): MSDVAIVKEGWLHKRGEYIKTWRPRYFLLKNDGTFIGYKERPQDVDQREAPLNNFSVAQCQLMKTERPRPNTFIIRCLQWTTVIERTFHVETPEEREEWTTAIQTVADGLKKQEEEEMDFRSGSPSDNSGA

Compound	Kd [nM]
O=P(O)(O)OC1C(O)C(O)C(O)C(O)C1O (centres unmarked) [Ins (1) monophosphate]	7000
O=P(O)(O)OC1C(O)C(O)C(OP(=O)(O)O)C(OP(=O)(O)O)C1O (centres unmarked) [Ins (1,4,5) trisphosphate]	1200
Ptd-Ins (4,5)bisphosphate	400

More lines, in order of falling Kd, values ahead:

Kd [nM]	Compound
8400	O=P(O)(O)OC1C(O)C(O)C(O)C(O)C1O (centres unmarked) [Ins (2) monophosphate]
900	O=P(O)(O)OC1C(O)C(O)C(OP(=O)(O)O)C(O)C1O (centres unmarked) [Ins (1,4) bisphosphate]

Reference: patent EP0871764B1, “SCREENING METHOD” (Novartis AG, priority 1995, dated 1997)
